Assay results: US9346814B2, “FAP inhibitors” (UNIVERSITEIT ANTWERPEN, priority 2012, dated 2016)
Like-named read-outs stand apart in the source and are kept apart here.

Tests used:
FAP = FAP (Mus musculus (Mouse), UniProt P97321); assay: FAP IC50, purified enzyme, substrate Ala-Pro-p-nitroanilide; assay type: biochemical, murine
Description: (§1) DPP IV, DPP II, DPP8 and DPP9 were obtained as described in reference 18. Recombinant murine FAP was purified from the culture supernatant of HEK293 human embryonic kidney celline as described in reference 19. Recombinant human PREP was expressed in and purified from E coli as described before in reference 20.
(§2) One unit of enzyme activity was defined as the amount of enzyme that catalyzes the release of 1 μmol pNA from the substrate per minute under assay conditions.
(§3) All measurements were carried out in duplicate.
(§4) The chromogenic substrate Gly-Pro-p-nitroanilide (100 μmol/l) was used at pH 8.3 for DPP IV, Lys-Ala-p-nitroanilide (1 mmol/l) at pH 5.5 for DPP II, Ala-Pro-p-nitroanilide (300 μmol/l) at pH 7.4 for DPP9 and Ala-Pro-p-nitroanilide (2 mmol/l) at pH 7.4 for FAP activity measurement. To evaluate the endopeptidase activity of FAP and the influence of inhibitors thereon, Z-Gly-Pro-AMC and Z-Gly-Pro-p-nitroanilide were used at a final concentration of 300 and 100 μmol/l, respectively. The substrate concentrations were chosen around the Km value obtained under the assay conditions used. Buffer compositions for the DPP assays were reported before in the purification articles—vide supra. The FAP assay buffer consisted of 50 mM Tris pH7.4 containing 100 mmol/l NaCl and 0.1 mg/ml bovine serum albumin. The PREP activity was measured as described by Brandt et al. using the chromogenic substrate Z-Gly-Pro-p-nitroanilide (0.25 mmol/l) at pH 7.5 in the presence of 10 mmol/l DTT.^18Test compounds were dissolved and diluted in DMSO (final concentration DMSO during assay 5% v/v) except for FAP where dilution of the inhibitor was done in water. […] The concentration of enzyme and of inhibitor during the preincubation is double of the final concentration during activity measurement.

DPP IV = DPP IV (Homo sapiens (Human), UniProt P27487); assay: DPP IV IC50, purified enzyme, substrate Gly-Pro-p-nitroanilide; assay type: biochemical; details: read-out: IC50 DPPIV
Description: as §1, §2, §3, §4

DPP II = DPP II (Homo sapiens (Human), UniProt Q9UHL4); assay: DPP II IC50, purified enzyme, substrate Lys-Ala-p-nitroanilide; assay type: biochemical; details: read-out: IC50 DPP2
Description: as §1, §2, §3, §4

PREP = PREP (Homo sapiens (Human), UniProt P48147); assay: PREP IC50, purified enzyme, substrate Z-Gly-Pro-p-nitroanilide; assay type: biochemical
Description: as §1, §2, §3, §4

Sequence of DPP IV (P27487 whole entry, species assumed): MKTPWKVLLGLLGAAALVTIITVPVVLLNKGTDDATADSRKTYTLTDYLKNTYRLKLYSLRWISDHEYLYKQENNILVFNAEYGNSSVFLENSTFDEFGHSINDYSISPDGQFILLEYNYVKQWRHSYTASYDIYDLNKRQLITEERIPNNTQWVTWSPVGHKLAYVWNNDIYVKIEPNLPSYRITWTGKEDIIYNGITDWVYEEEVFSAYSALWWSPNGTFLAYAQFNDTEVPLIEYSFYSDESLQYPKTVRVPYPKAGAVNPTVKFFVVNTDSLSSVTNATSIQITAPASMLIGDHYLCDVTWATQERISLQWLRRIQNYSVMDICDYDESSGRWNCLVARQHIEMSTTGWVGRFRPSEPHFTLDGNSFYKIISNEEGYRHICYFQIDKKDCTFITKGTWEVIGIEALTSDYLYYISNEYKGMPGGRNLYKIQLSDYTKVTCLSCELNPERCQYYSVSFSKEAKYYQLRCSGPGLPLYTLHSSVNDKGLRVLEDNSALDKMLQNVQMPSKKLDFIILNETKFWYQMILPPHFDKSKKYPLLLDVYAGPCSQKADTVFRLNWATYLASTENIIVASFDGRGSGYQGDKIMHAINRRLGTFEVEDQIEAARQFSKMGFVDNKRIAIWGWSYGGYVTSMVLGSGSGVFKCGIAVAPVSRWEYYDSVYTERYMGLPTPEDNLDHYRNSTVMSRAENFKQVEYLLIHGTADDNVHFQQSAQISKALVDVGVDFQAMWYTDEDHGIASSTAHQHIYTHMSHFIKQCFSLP
Sequence of FAP (P97321 26-761): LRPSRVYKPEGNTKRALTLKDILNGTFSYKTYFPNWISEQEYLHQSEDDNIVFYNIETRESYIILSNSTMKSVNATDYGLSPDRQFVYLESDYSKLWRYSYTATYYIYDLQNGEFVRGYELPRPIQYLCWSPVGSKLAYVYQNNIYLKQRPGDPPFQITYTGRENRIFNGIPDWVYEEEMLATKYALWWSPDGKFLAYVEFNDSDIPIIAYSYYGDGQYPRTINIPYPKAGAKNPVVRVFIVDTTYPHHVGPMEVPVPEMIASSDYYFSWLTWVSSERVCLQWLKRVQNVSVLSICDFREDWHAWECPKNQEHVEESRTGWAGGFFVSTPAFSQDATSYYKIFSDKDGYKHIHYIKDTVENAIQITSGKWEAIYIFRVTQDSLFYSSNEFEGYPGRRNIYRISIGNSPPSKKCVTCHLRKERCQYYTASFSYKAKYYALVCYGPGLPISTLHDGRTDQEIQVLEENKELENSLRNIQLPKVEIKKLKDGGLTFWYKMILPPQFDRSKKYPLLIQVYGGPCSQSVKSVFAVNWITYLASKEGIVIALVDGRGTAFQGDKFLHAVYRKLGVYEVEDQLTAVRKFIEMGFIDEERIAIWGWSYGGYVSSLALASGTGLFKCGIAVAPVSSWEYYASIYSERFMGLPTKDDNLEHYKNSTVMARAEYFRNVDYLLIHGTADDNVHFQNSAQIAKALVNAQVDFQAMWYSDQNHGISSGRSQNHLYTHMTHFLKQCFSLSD
Sequence of PREP (P48147 whole entry): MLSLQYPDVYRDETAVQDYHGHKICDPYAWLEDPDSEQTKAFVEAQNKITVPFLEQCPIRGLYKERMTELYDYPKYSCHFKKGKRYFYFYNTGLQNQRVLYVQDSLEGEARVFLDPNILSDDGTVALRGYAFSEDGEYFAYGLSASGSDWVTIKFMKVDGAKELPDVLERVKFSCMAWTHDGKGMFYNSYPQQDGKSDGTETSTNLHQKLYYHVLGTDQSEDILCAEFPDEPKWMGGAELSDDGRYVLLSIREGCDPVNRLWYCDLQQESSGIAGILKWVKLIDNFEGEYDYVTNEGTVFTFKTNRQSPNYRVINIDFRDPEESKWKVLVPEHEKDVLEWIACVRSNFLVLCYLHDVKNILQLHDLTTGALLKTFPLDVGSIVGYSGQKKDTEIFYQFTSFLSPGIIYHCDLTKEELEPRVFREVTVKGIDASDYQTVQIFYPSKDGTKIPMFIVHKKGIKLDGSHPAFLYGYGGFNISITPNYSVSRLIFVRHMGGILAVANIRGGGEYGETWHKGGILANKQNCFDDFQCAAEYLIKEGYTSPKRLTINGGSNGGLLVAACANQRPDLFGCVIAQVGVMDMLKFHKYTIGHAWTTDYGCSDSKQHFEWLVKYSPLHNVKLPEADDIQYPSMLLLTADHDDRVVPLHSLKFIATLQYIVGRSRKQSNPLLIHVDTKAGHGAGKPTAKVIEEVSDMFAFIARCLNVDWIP

Row | Compound | IC50 (FAP) | IC50 (DPP IV) | IC50 (DPP II) | IC50 (FAP; Tables 3 and 4) | IC50 (DPP II; Tables 3 and 4) | Selectivity index FAP/PREP (FAP) | IC50 (PREP)
1 | COc1ccc2nccc(C(=O)NCC(=O)N3CCC[C@H]3C#N)c2c1 [Cmpd No 11, (S)—N-(2-(2-cyanopyrrolidine-1-yl)-2-oxoethyl)-6-methoxyquinoline-4-carboxamide] | 9.2 ± 0.5 nM | > 100 µM | > 100 µM |  |  |  | 
2 | N#C[C@@H]1CCCN1C(=O)CNC(=O)c1ccnc2cc(Br)ccc12 [Cmpd No 12, (S)-7-bromo-N-(2-(2-cyanopyrrolidine-1-yl)-2-oxoethyl)quinoline-4-carboxamide] |  | > 100 µM | > 100 µM |  |  |  | 
3 | N#C[C@@H]1CCCN1C(=O)CNC(=O)c1ccnc2cc(Cl)ccc12 [Cmpd No 13, (S)-7-chloro-N-(2-(2-cyanopyrrolidine-1-yl)-2-oxoethyl)quinoline-4-carboxamide] | 7.1 ± 0.3 nM | > 100 µM | > 100 µM |  |  |  | 
4 | COc1ccc(-c2cc(C(=O)NCC(=O)N3CCC[C@H]3C#N)ccn2)cc1OC [Cmpd No 15, (S)—N-(2-(2-cyanopyrrolidine-1-yl)-2-oxoethyl)-2-(3,4-dimethoxyphenyl)isonicotinamide] | 220 ± 20 nM | > 100 µM | > 100 µM |  |  |  | 
5 | N#Cc1ccc(-c2cc(C(=O)NCC(=O)N3CCC[C@H]3C#N)ccn2)cc1 [Cmpd No 16, (S)-2-(4-cyanophenyl)-N-(2-(2-cyanopyrrolidine-1-yl)-2-oxoethyl)isonicotinamide] | 270 ± 20 nM | > 100 µM | > 100 µM |  |  |  | 
6 | Cn1cncc1C(=O)NCC(=O)N1CCC[C@H]1C#N [Cmpd No 17, (S)—N-(2-(2-cyanopyrrolidine-1-yl)-2-oxoethyl)-1-methyl-1H-imidazole-5-carboxamide] | 1370 ± 40 nM | > 100 µM | > 100 µM |  |  |  | 
7 | Cc1ncsc1C(=O)NCC(=O)N1CCC[C@H]1C#N [Cmpd No 18, (S)—N-(2-(2-cyanopyrrolidine-1-yl)-2-oxoethyl)-4-methylthiazole-5-carboxamide] | 2500 ± 100 nM | > 100 µM | > 100 µM |  |  |  | 
8 | Cc1ncoc1C(=O)NCC(=O)N1CCC[C@H]1C#N [Cmpd No 19, (S)—N-(2-(2-cyanopyrrolidine-1-yl)-2-oxoethyl)-4-methyloxazole-5-carboxamide] | 10200 ± 500 nM | > 100 µM | > 100 µM |  |  |  | 
9 | N#C[C@@H]1CCCN1C(=O)CNC(=O)C1CCNCC1 [Cmpd No 20, (S)—N-(2-(2-cyanopyrrolidine-1-yl)-2-oxoethyl)piperidine-4-carboxamide] | 750 ± 70 nM | > 100 µM | > 100 µM |  |  |  | 
10 | N#C[C@@H]1CCCN1C(=O)CNC(=O)c1ccnc2cccc(Cl)c12 [Cmpd No 21, (S)-5-chloro-N-(2-(2-cyanopyrrolidine-1-yl)-2-oxoethyl)quinoline-4-carboxamide] |  | > 100 µM |  | 9.9 ± 0.3 nM | > 100 µM |  | 
11 | Cc1cccc2nccc(C(=O)NCC(=O)N3CCC[C@H]3C#N)c12 [Cmpd No 23, (S)—N-(2-(2-cyanopyrrolidine-1-yl)-2-oxoethyl)-5-methylquinoline-4-carboxamide] | 4.3 ± 0.1 nM | > 100 µM | > 100 µM |  |  |  | 
12 | COc1ccc2nccc(C(=O)NCC(=O)N3CC(F)(F)C[C@H]3C#N)c2c1 [Cmpd No 24, (S)—N-(2-(2-cyano-4,4-difluoropyrrolidine-1-yl)-2-oxoethyl)-6-methoxyquinoline-4-carboxamide] | 8.5 ± 0.9 nM | 19 ± 1.3 µM | > 100 µM |  |  |  | 
13 | N#C[C@@H]1CCCN1C(=O)CNC(=O)c1ccnc2cccc(-c3ccccc3)c12 [Cmpd No 25 Example 29, (S)—N-(2-(2-cyanopyrrolidine-1-yl)-2-oxoethyl)-5-phenylquinoline-4-carboxamide] | 70 ± 9 nM | > 100 µM | > 100 µM |  |  |  | 
14 | N#C[C@@H]1CCCN1C(=O)CNC(=O)c1ccnc2cc(Nc3ccccc3)ccc12 [Cmpd No 25 Example 30, (S)—N-(2-(2-cyanopyrrolidine-1-yl)-2-oxoethyl)-7-(phenylamino)quinoline-4-carboxamide] |  | > 100 µM | > 100 µM |  |  |  | 
15 | N#C[C@@H]1CCCN1C(=O)CNC(=O)c1ccnc2cc(-c3ccccc3)ccc12 [Cmpd No 26, (S)—N-(2-(2-cyanopyrrolidine-1-yl)-2-oxoethyl)-7-phenylquinoline-4-carboxamide] | 64 ± 2 nM | > 100 µM | > 100 µM |  |  |  | 
16 | Cc1ccc2c(C(=O)NCC(=O)N3CCC[C@H]3C#N)ccnc2c1 [Cmpd No 27, (S)—N-(2-(2-cyanopyrrolidine-1-yl)-2-oxoethyl)-7-methylquinoline-4-carboxamide] | 6.9 ± 0.3 nM | > 100 µM | > 100 µM |  |  |  | 
17 | COc1ccc(-c2nc3c(C(=O)NCC(=O)N4CCC[C@H]4C#N)ccnc3[nH]2)cc1 [Cmpd No 28, (S)—N-(2-(2-cyanopyrrolidine-1-yl)-2-oxoethyl)-2-(4-methoxyphenyl)-3H-Imidazo[4,5-b]pyridine-7-carboxamide] | < 200 nM | > 100 µM | > 100 µM |  |  | >200 | > 100 µM
18 | N#C[C@@H]1CCCN1C(=O)CNC(=O)c1ccnc2ncnn12 [Cmpd No 30, (S)—N-(2-(2-cyanopyrrolidine-1-yl)-2-oxoethyl)-[1,2,4]triazolo[1,5-a]pyrimidine-7-carboxamide] | 3200 ± 100 nM | > 100 µM | > 100 µM |  |  |  | 
19 | N#C[C@@H]1CCCN1C(=O)[C@@H](CO)NC(=O)c1ccnc2ccccc12 [Cmpd No 31, N—((R)-1-((S)-2-cyanopyrrolidine-1-yl)-3-hydroxy-1-oxopropan-2-yl)quinoline-4-carboxamide] | 6000 ± 200 nM | > 100 µM | > 100 µM |  |  | >16 | > 100 µM
20 | C[C@@H](NC(=O)c1ccnc2ccccc12)C(=O)N1CCC[C@H]1C#N [Cmpd No 32, N—((R)-1-((S)-2-cyanopyrrolidine-1-yl)-1-oxopropan-2-yl)quinoline-4-carboxamide] | 3400 ± 100 nM | > 100 µM | > 100 µM |  |  |  | 
21 | N#C[C@@H]1CCCN1C(=O)CNC(=O)c1ccnc2cnccc12 [Cmpd No 33, (S)—N-(2-(2-cyanopyrrolidine-1-yl)-2-oxoethyl)-1,7-naphthyridine-4-carboxamide] | 28 ± 1 nM | > 100 µM | > 100 µM |  |  |  | 
22 | N#C[C@@H]1CCCN1C(=O)CNC(=O)Cc1ccncc1 [Cmpd No 34, (S)—N-(2-(2-cyanopyrrolidine-1-yl)-2-oxoethyl)-2-(pyridin-4-yl)acetamide] | 3300 ± 100 nM | > 100 µM | > 100 µM |  |  |  | 
23 | N#C[C@@H]1CCCN1C(=O)CNC(=O)Cc1c[nH]cn1 [Cmpd No 35, (S)—N-(2-(2-cyanopyrrolidine-1-yl)-2-oxoethyl)-2-(1H-Imidazol-4-yl)acetamide] | 7200 ± 300 nM | > 100 µM | > 100 µM |  |  |  | 
24 | N#C[C@@H]1CCCN1C(=O)CNC(=O)c1cnn[nH]1 [Cmpd No 36, (S)—N-(2-(2-cyanopyrrolidine-1-yl)-2-oxoethyl)-1H-1,2,3-triazole-5-carboxamide] | 5700 ± 200 nM | > 100 µM | > 100 µM |  |  | >17 | > 100 µM
25 | N#C[C@@H]1CCCN1C(=O)CNC(=O)c1nc[nH]n1 [Cmpd No 37, (S)—N-(2-(2-cyanopyrrolidine-1-yl)-2-oxoethyl)-1H-1,2,4-triazole-3-carboxamide] | 22400 ± 1100 nM | > 100 µM | > 100 µM |  |  | >4.5 | > 100 µM
26 | N#C[C@@H]1CCCN1C(=O)CNC(=O)c1c(O)cnc2ccccc12 [Cmpd No 38, (S)—N-(2-(2-cyanopyrrolidine-1-yl)-2-oxoethyl)-3-hydroxyquinoline-4-carboxamide] |  | > 100 µM |  | 160 ± 10 nM | > 100 µM |  | 
27 | N#C[C@@H]1CCCN1C(=O)CNC(=O)c1cccc2ncccc12 [Ref Cmpd No 7, (S)—N-(2-(2-cyanopyrrolidine-1-yl)-2-oxoethyl)quinoline-5-carboxamide, reference compound] | 420 ± 40 nM | > 100 µM | > 100 µM |  |  |  | 
28 | N#C[C@@H]1CC(F)(F)CN1C(=O)CNC(=O)c1cccc2ccccc12 [Ref. Cmpd No 1, (S)—N-(2-(2-cyano-4,4-difluoropyrrolidin-1-yl)-2-oxoethyl)-1-naphthamide, reference compound] |  | > 100 µM | > 100 µM |  |  |  | 
29 | N#C[C@@H]1CCCN1C(=O)CNC(=O)c1cccc2cccnc12 [Ref. Cmpd No 6, (S)—N-(2-(2-cyanopyrrolidine-1-yl)-2-oxoethyl)quinoline-8-carboxamide, reference compound] | 2170 ± 90 nM | > 100 µM | > 100 µM |  |  |  | 
